Publication PMC5214259, “Identification of Guanosine 5′-diphosphate as Potential Iron Mobilizer: Preventing the Hepcidin-Ferroportin Interaction and Modulating the Interleukin-6/Stat-3 Pathway” (Scientific Reports, 2017)

Target: T1, hepcidin (Homo sapiens, UniProt P81172)
T1 construct: gene HAMP; hepcidin-25 (25 amino acid peptide hormone)
T1 sequence (P81172 60-84 limits assumed): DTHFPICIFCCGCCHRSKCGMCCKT
Test: UV-visible absorption titration (Kd); thermal shift assay (SYPRO orange, Tm […] to […] °C with equimolar GDP)
Type: binding

Nc1nc2c(ncn2[C@@H]2O[C@H](COP(=O)(O)OP(=O)(O)O)[C@@H](O)[C@H]2O)c(=O)[nH]1 [ZINC08215481, guanosine 5′-diphosphate]
Kd: 5.88 µM
